# Assay results as given in patent publication US6391914B1, “Optically active aminopentane derivatives” (Fujimoto Brothers Co., Ltd., priority 1998, dated 2002).
# Structures can show the parent of a compound that is named as a salt. Where two headings read alike, the source gives them in different places.
# Columns and labels:
# [1] = test system: brain tissues (striatum, substantia nigra, tuberculum olfactorium, locus coeruleus and raphe); test: Biogenic amines released from brain tissue after s.c. administration; type: in vivo, Wistar rats
# Protocol: The method described in Life Sci., 56, 611-620 (1995) was used. After Wistar rats were decapitated, appropriate brain tissues (striatum, substantia nigra, tuberculum olfactorium, locus coeruleus and raphe) were isolated quickly and soaked in oxygenated (95% O2 and 5% CO2) Krebs' solution at 37° C. The composition of Krebs' solution (mmol/L) was as follows: NaCl 111, KCl 4.7, CaCl2 2.5, MgSO4 1.64, NaHCO3 25, KH2PO4 1.2, glucose 12 mg/L ascorbic acid and 20 mg/l EDTA-2Na. The preparations, submerged in one organ bath, were as follows: 1) four pieces of striatum (each halved), 2) four pieces of substantia nigra, 3) four pieces of tuberculum olfactorium, 4) eight pieces of locus coeruleus, 5) eight pieces of raphe. After incubating the tissue for 20 min, the Krebs' solution was exchanged. After the tissue was submerged for 20 min in Krebs' solution containing the compounds of the invention, the biogenic amine released during this period was quantified. The compounds of the invention, the (+)-isomer, the racemic compound and control compound, were respectively dissolved in saline, and subcutaneously administered 30 min before dissection of the brain samples. In the case of noradrenaline and dopamine, samples were purified on microcolumns (BDH Chemicals Ltd.) filled with 60 mg of alumina according to the method described in J. Pharmacol. Exp. Ther., 138, 360-372 (1962). In the case of serotonin, samples were purified on 15 mg Sephadex G-10 microcolumns (Pharmacia). Dopamine, noradrenaline and serotonin were quantified by high performance liquid chromatography (Waters 746 data module) with electrochemical detection (Waters 460 electrochemical detector). Waters Resolve 5μ Spherical C18 3.9×150 mm column was used as separating column and triethylamine-phosphate buffer (pH 5.2) containing 200/mg/L octaine sulfonate sodium and 18 mg/L EDTA-2Na with 6% acetonitrile, was used as mobile phase. The amount of appropriate amine released for 20 min was noted as nmol/g tissue. The differences among means were tested using Student's t-test. Significant level was set at P<0.05.
# [2] = molecular target: α2 receptor; test: Receptor affinity, 3H-rauwolscine binding; set-up: species or system rats; settings: 0.7 nmol/L 3H-rauwolscine, read-out: Affinity to α2 receptor: concentration showing 50% inhibition between ligand and receptor
# Protocol: The receptor solution was prepared as follows. After the rats were decapitated, brain was immediately isolated and weighed. Thereafter, brain samples were homogenized in ten times volumes of ice-cold 0.35 mol/L sucrose (pH 7.4) using glass homogenizer with Teflon pestle, which was revolted by motors. The homogenate was centrifuged at 4° C. at 900×g for 10 min and the supernatant was, furthermore, recentrifuged at 4° C. at 22,000×g for 20 min. The precipitate was suspended with addition of 5 mmol/L phosphate buffer solution (pH 7.4). After the suspension was incubated at 37° C. for 30 min, the suspension was recentrifuged at 4° C. at 20,000×g for 20 min. The precipitate was resuspended in 10 ml of 5 mmol/L phosphate buffer solution (pH 8.0) to be receptor solution.
# ^3H-prazocin was used as a ligand. 0.25 nmol/L of ^3H-prazocin, the compounds of the invention and the receptor solution, which were respectively prepared in 5 mmol/L phosphate buffer (pH 8), were put in tube and the mixture was incubated at 25° C. for 90 min. In addition, the nonspecific binding was evaluated with binding value of ^3H-prazocin in the presence of 0.1 μmol/L prazocin. The binding assay was carried out as follows. After ^3H-prazocin (binding type: B) bound to receptor, only the binding type of ^3H-prazocin was collected using B/F separator (Brandel, USA) with glass fiber filter (pore size: 0.5 μm Whatman GF/C), and free type of prazocin (free type: F) was removed. Glass-fiber filter, absorbing the binding type of ^3H-prazocin, was washed with ice-cold saline solution and transferred to vial. After 10 ml of scintillation cocktail was put in it, the radioactivity was measured. Affinity of the compounds of the invention to α1 receptor was evaluated from the inhibition rate of binding between α1 receptor and the ligand.
# Affinities of the compounds of the invention to receptors of α2, D1, D2, 5-HT1 and 5-HT2 were respectively determined in the same manner, while used 0.7 nmol/L ^3H-rauwolscine, 1.4 nmol/L ^3H-SCH-23390, 2.0 nmol/L spiperone, 2 nmol/L ^3H-5-HT and 0.5 nmol/L ^3H-ketanserin as each ligands. […]
Structure (SMILES),"Amount of dopamine released, Striatum ([1]; dose 0.0005 mg/kg s.c.)","Amount of dopamine released, Substantia Nigraia ([1]; dose 0.0005 mg/kg s.c.)","Amount of dopamine released, Tuberculum Olfactorium ([1]; dose 0.0005 mg/kg s.c.)","Amount of noradrenaline released, Locus Coeruleus ([1]; dose 0.0005 mg/kg s.c.)","Amount of serotonin released, Raphe ([1]; dose 0.0005 mg/kg s.c.)","Amount of dopamine released, Striatum ([1]; dose 0.0025 mg/kg s.c.)","Amount of dopamine released, Substantia Nigraia ([1]; dose 0.0025 mg/kg s.c.)","Amount of dopamine released, Tuberculum Olfactorium ([1]; dose 0.0025 mg/kg s.c.)","Amount of noradrenaline released, Locus Coeruleus ([1]; dose 0.0025 mg/kg s.c.)","Amount of serotonin released, Raphe ([1]; dose 0.0025 mg/kg s.c.)","Amount of dopamine released, Striatum ([1]; dose 0.0500 mg/kg s.c.)","Amount of dopamine released, Substantia Nigraia ([1]; dose 0.0500 mg/kg s.c.)","Amount of dopamine released, Tuberculum Olfactorium ([1]; dose 0.0500 mg/kg s.c.)","Amount of noradrenaline released, Locus Coeruleus ([1]; dose 0.0500 mg/kg s.c.)","Amount of serotonin released, Raphe ([1]; dose 0.0500 mg/kg s.c.)",IC50 ([2]; hydrochloride),also measured
"CCCNC(CCC)Cc1cc2ccccc2o1.Cl (racemic) [Racemic compound, (±)-1-(benzofuran-2-yl)-2-propylaminopentane hydrochloride]",–,–,–,–,–,–,–,–,–,–,–,–,–,–,–,–,"Amount of dopamine released, Striatum ([1]; dose 0.0100 mg/kg s.c.): 5.3 ± 0.14 nmol/g · tissue. 20 min.; Amount of dopamine released, Substantia Nigraia ([1]; dose 0.0100 mg/kg s.c.): 6.6 ± 0.04 nmol/g · tissue. 20 min.; Amount of dopamine released, Tuberculum Olfactorium ([1]; dose 0.0100 mg/kg s.c.): 6.5 ± 0.20 nmol/g · tissue. 20 min.; Amount of noradrenaline released, Locus Coeruleus ([1]; dose 0.0100 mg/kg s.c.): 4.3 ± 0.20 nmol/g · tissue. 20 min.; Amount of serotonin released, Raphe ([1]; dose 0.0100 mg/kg s.c.): 0.457 ± 0.04 nmol/g · tissue. 20 min.; IC50 [2]: 1000 nM"
"CCCNC(CCC)Cc1cc2ccccc2o1.Cl (single isomer, unassigned; (+)) [(+)-Isomer, (+)-1-(benzofuran-2-yl)-2-propylaminopentane hydrochloride]",4.4 ± 0.13 nmol/g · tissue. 20 min.,13.8 ± 0.25 nmol/g · tissue. 20 min.,6.7 ± 0.06 nmol/g · tissue. 20 min.,10.3 ± 0.35 nmol/g · tissue. 20 min.,1.785 ± 0.01 nmol/g · tissue. 20 min.,4.4 ± 0.10 nmol/g · tissue. 20 min.,8.4 ± 0.14 nmol/g · tissue. 20 min.,4.8 ± 0.25 nmol/g · tissue. 20 min.,7.4 ± 0.15 nmol/g · tissue. 20 min.,1.138 ± 0.05 nmol/g · tissue. 20 min.,4.4 ± 0.17 nmol/g · tissue. 20 min.,7.1 ± 0.24 nmol/g · tissue. 20 min.,4.8 ± 0.18 nmol/g · tissue. 20 min.,4.4 ± 0.10 nmol/g · tissue. 20 min.,0.642 ± 0.02 nmol/g · tissue. 20 min.,2600 nM,"Amount of dopamine released, Striatum ([1]; dose 0.1000 mg/kg s.c.): 5.8 ± 0.21 nmol/g · tissue. 20 min.; Amount of dopamine released, Substantia Nigraia ([1]; dose 0.1000 mg/kg s.c.): 15.9 ± 0.25 nmol/g · tissue. 20 min.; Amount of dopamine released, Tuberculum Olfactorium ([1]; dose 0.1000 mg/kg s.c.): 7.3 ± 0.20 nmol/g · tissue. 20 min.; Amount of noradrenaline released, Locus Coeruleus ([1]; dose 0.1000 mg/kg s.c.): 5.6 ± 0.25 nmol/g · tissue. 20 min.; Amount of serotonin released, Raphe ([1]; dose 0.1000 mg/kg s.c.): 0.381 ± 0.01 nmol/g · tissue. 20 min."
"CCCNC(CCC)Cc1cc2ccccc2o1 (single isomer, unassigned; (-)) [The compound of the invention, (−)-1-(benzofuran-2-yl)-2-propylaminopentane hydrochloride]",4.8 ± 0.16 nmol/g · tissue. 20 min.,13.8 ± 0.23 nmol/g · tissue. 20 min.,6.7 ± 0.08 nmol/g · tissue. 20 min.,15.4 ± 0.55 nmol/g · tissue. 20 min.,0.914 ± 0.03 nmol/g · tissue. 20 min.,5.7 ± 0.19 nmol/g · tissue. 20 min.,13.1 ± 0.21 nmol/g · tissue. 20 min.,6.9 ± 0.31 nmol/g · tissue. 20 min.,3.9 ± 0.05 nmol/g · tissue. 20 min.,0.421 ± 0.03 nmol/g · tissue. 20 min.,6.5 ± 0.09 nmol/g · tissue. 20 min.,10.9 ± 0.11 nmol/g · tissue. 20 min.,7.7 ± 0.19 nmol/g · tissue. 20 min.,4.3 ± 0.25 nmol/g · tissue. 20 min.,0.457 ± 0.01 nmol/g · tissue. 20 min.,3100 nM,"Amount of dopamine released, Striatum ([1]; dose 0.0001 mg/kg s.c.): 4.7 ± 0.14 nmol/g · tissue. 20 min.; Amount of dopamine released, Substantia Nigraia ([1]; dose 0.0001 mg/kg s.c.): 14.8 ± 0.36 nmol/g · tissue. 20 min.; Amount of dopamine released, Tuberculum Olfactorium ([1]; dose 0.0001 mg/kg s.c.): 7.2 ± 0.23 nmol/g · tissue. 20 min.; Amount of noradrenaline released, Locus Coeruleus ([1]; dose 0.0001 mg/kg s.c.): 6.6 ± 0.10 nmol/g · tissue. 20 min.; Amount of serotonin released, Raphe ([1]; dose 0.0001 mg/kg s.c.): 1.040 ± 0.03 nmol/g · tissue. 20 min."
